Data taken from the supplement of paper PMC5908809.

Tests used:
[1] = system: normal NK cells expanded with K562-aAPC; assay: percent inhibition of viability; higher = more inhibition; conditions: 72 h, IL-2 2.5 ng/mL
Experimental: (§1)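 Drug sensitivity and resistance testing on K562-aAPC-expanded normal NK cells: 5 concentrations (10-fold steps over a 10,000-fold range), 72 h at 37 °C, viability by CellTiter-Glo normalised to DMSO and benzethonium chloride controls; DSS from the fitted curve.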

DERL-7 (IL-2 2.5 ng/mL) [2] = assay: as above; conditions: 72 h
IMC-1 (IL-2 20 ng/mL) [3] = assay: as above; conditions: 72 h
KAI3 (IL-2 2.5 ng/mL) [4] = assay: as above; conditions: 72 h
KHYG-1 (IL-2 2.5 ng/mL) [5] = assay: as above; conditions: 72 h
NK-92 (IL-2 2.5 ng/mL) [6] = assay: as above; conditions: 72 h
NK-YS (IL-2 2.5 ng/mL) [7] = assay: as above; conditions: 72 h
NKL (IL-2 2.5 ng/mL) [8] = assay: as above; conditions: 72 h
SNK-6 (IL-2 2.5 ng/mL) [9] = assay: as above; conditions: 72 h
YT (IL-2 2.5 ng/mL) [10] = assay: as above; conditions: 72 h
[11] = system: normal primary NK cells, pool 1 (3 donors) (IL-2 2.5 ng/mL); assay: as above; conditions: 72 h
[12] = system: normal primary NK cells, pool 1 (3 donors), resting (IL-2 0 ng/mL); assay: as above; conditions: 72 h
[13] = system: normal primary NK cells, pool 2 (3 donors) (IL-2 2.5 ng/mL); assay: as above; conditions: 72 h
[14] = system: normal primary NK cells, pool 3 (3 donors) (IL-2 2.5 ng/mL); assay: as above; conditions: 72 h
[15] = system: normal NK cells expanded with K562-aAPC; assay: drug sensitivity score (DSS) (DSS units); higher = more sensitive; extreme values may be limits of the assay; conditions: 72 h; IL-2 2.5 ng/mL
Experimental: as §1

DERL-7 (IL-2 2.5 ng/mL) [16] = assay: as above; conditions: 72 h
IMC-1 (IL-2 20 ng/mL) [17] = assay: as above; conditions: 72 h
KAI3 (IL-2 2.5 ng/mL) [18] = assay: as above; conditions: 72 h
KHYG-1 (IL-2 2.5 ng/mL) [19] = assay: as above; conditions: 72 h
NK-92 (IL-2 2.5 ng/mL) [20] = assay: as above; conditions: 72 h
NK-YS (IL-2 2.5 ng/mL) [21] = assay: as above; conditions: 72 h
NKL (IL-2 2.5 ng/mL) [22] = assay: as above; conditions: 72 h
SNK-6 (IL-2 2.5 ng/mL) [23] = assay: as above; conditions: 72 h
YT (IL-2 2.5 ng/mL) [24] = assay: as above; conditions: 72 h
[25] = system: normal primary NK cells, pool 1 (3 donors) (IL-2 2.5 ng/mL); assay: as above; conditions: 72 h
[26] = system: normal primary NK cells, pool 1 (3 donors), resting (IL-2 0 ng/mL); assay: as above; conditions: 72 h
[27] = system: normal primary NK cells, pool 2 (3 donors) (IL-2 2.5 ng/mL); assay: as above; conditions: 72 h
[28] = system: normal primary NK cells, pool 3 (3 donors) (IL-2 2.5 ng/mL); assay: as above; conditions: 72 h

C#Cc1cccc(Nc2ncnc3cc(OC)c(OCCCCCCC(=O)NO)cc23)c1 [CUDC-101] (max concentration tested 10000 nM)
percent inhibition of viability [%]
Conditions	1 nM	10 nM	100 nM	1000 nM	10000 nM
DERL-7 (IL-2 2.5 ng/mL) [2]	-3.07	-2.96	19.3	100	101
IMC-1 (IL-2 20 ng/mL) [3]	-4.07	-5.13	-1.06	48.9	101
KAI3 (IL-2 2.5 ng/mL) [4]	-3.15	0.88	27.8	77.2	105
KHYG-1 (IL-2 2.5 ng/mL) [5]	1.82	3.01	36.4	99.1	106
NK-92 (IL-2 2.5 ng/mL) [6]	9.73	-1.07	19.2	85.7	105
NK-YS (IL-2 2.5 ng/mL) [7]	-4.37	0.36	0.68	57.3	105
NKL (IL-2 2.5 ng/mL) [8]	-15.6	-12.1	1.83	90.5	108
SNK-6 (IL-2 2.5 ng/mL) [9]	11.7	10.8	24.7	78.1	100
YT (IL-2 2.5 ng/mL) [10]	0.23	0.94	9.37	95.4	106
[1]	-2.26	1.39	1.83	75.4	101
[11]	-3.28	-4.06	12.8	88.8	98.8
[12]	10.4	0.86	30.2	78.6	92.4
[13]	-9.31	-5.49	9.37	84.5	97
[14]	-12	1.9	2.2	82.8	99.5

Conditions	drug sensitivity score
DERL-7 (IL-2 2.5 ng/mL) [16]	21.1
IMC-1 (IL-2 20 ng/mL) [17]	11.6
KAI3 (IL-2 2.5 ng/mL) [18]	17.9
KHYG-1 (IL-2 2.5 ng/mL) [19]	22.6
NK-92 (IL-2 2.5 ng/mL) [20]	18.1
NK-YS (IL-2 2.5 ng/mL) [21]	12.4
NKL (IL-2 2.5 ng/mL) [22]	16.5
SNK-6 (IL-2 2.5 ng/mL) [23]	17.6
YT (IL-2 2.5 ng/mL) [24]	18.8
[15]	14.3
[25]	17.9
[26]	18.1
[27]	16.7
[28]	15.3
